# Legend:
# SREBP-1c [1] = assay: SREBP-1c expression under high-glucose/high-insulin exposure, HepG2 (western blot); format: cell-based, human; conditions: 30 mM glucose, 200 nM insulin 24 hours, 1-3 μM ligand
# Description: (§1) A 6-well plate was inoculated with HepG2 (ATCC, US), as a human hepatocyte line, and cultured until confluence in a DMEM medium containing 1% penicillin-streptomycin (Hyclone, US) and 10% fetal bovine serum (Hyclone, US) in a 5% CO2 incubator at 37° C. The medium containing 10% fetal bovine serum of the hepatocyte line grown to confluence was replaced by a medium not containing FBS. The cell line was additionally cultured for 18 hours and used as a sample for an experiment.
# (§2) Sodium dodecyl sulfate-polyacrylamide gel electrophoresis (SDS-PAGE) was carried out by means of a gel electrophoresis device (Mighty Small SE 250, Hoefer Scientific Instruments, San Francisco) according to a method by Laemmli (UK, Nature 227, 680-685, 1970). […] Whether total protein contents in samples are the same is determined using anti-β-actin and anti-LaminA/C antibodies. Changes in protein expression amounts were determined by measuring the intensities of chemiluminescence signals on the blot by means of densitometry. […] Each lane was calculated using AlphaEase™ version 5.5 software and background intensity was removed from the calculated values. […]
# [2] = system: mouse liver tissue and hepatocyte line; assay: Summary statement: mouse liver tissue and hepatocyte line treated with the two GPR119 ligands; format: cell-based
# SREBP-1c [3] = assay: SREBP-1c expression under high-glucose/high-insulin exposure, primary hepatocytes (western blot); format: cell-based, mouse; conditions: 0.3-10 μM ligand
# Description: Liver cells were collected from male C57BL/6 mice (Central Lab. Animal Inc., Seoul) according to a method by Seglen et al. (Exp Cell Res., 82, pp 391-398, 1973). Each C57BL/6 mouse was anesthetized and then the abdomen thereof was incised. Subsequently, the hepatic portal vein was intubated and a gas mixture of 5% CO2 and 95% O2 was insufflated thereinto. A Ca^2+ and Mg^2+-free Hank's balanced salt solution at 37° C. was flowed into the tube to remove blood in the liver. Subsequently, a 0.1% collagenase type IV (Sigma, US) solution was flowed thereinto. The liver tissue was removed from the body, and then prepared into a hepatocyte suspension. The prepared hepatocyte suspension was centrifuged at 50×g for two minutes. […]
# as §2
# TNF-alpha mRNA = TNF-alpha mRNA after LPS stimulation in RAW264.7 cells (real time PCR); format: cell-based, mouse; conditions: RAW264.7, 3 μM, 10 ng/ml LPS, 6 hours
# Description: (§3) RAW264.7 cells cultured in 6-well plates were stabilized for 12 hours in a serum-free medium, and then exposed to 3 μM of MBX-2982 and 10 ng/ml of LPS. After 6 hours, RNA samples extracted with TRIZOL were reversely transcribed using a cDNA synthesis PCR kit to synthesize cDNAs. The cDNAs obtained through reverse transcription were used as a template, and primers for 5′ and 3′ flanking sequences of cDNAs to be amplified were as follows. Real time PCR (Mini-Opticon, Bio-Rad, US) was carried out and the expression levels of mRNA were investigated.
# (§4) Inflammatory marker change results evaluated after LPS stimulation for RAW264.7 cells, which were derived from a mouse macrophage cell line, are illustrated in FIG. 18.
# FAS = FAS expression under high-glucose/high-insulin exposure, HepG2 (western blot); format: cell-based, human
# Description: as §1, §2
# MCP-1 mRNA = MCP-1 mRNA after LPS stimulation in RAW264.7 cells (real time PCR); format: cell-based, mouse; conditions: RAW264.7, 3 μM, 10 ng/ml LPS, 6 hours
# Description: as §3, §4
compound,measurement,setting,value
"CCc1cnc(N2CCC(c3nc(COc4ccc(-n5cnnn5)cc4)cs3)CC2)nc1 [MBX2982, 4-((4-(1H-tetrazol-1-yl)phenoxy)methyl)-2-(1-(5-ethylpyrimidin-2-yl)piperidin-4-yl)thiazole]",SREBP-1c and nuclear (active-type) SREBP-1C expression increased by high-glucose/high-insulin,SREBP-1c [1],completely inhibited
same,activity of SREBP-1c,[2],inhibited
same,expression of GPR119,[2],increased
same,expression of acetyl CoA carboxylase (ACC),[2],inhibited
same,expression of fatty acid synthase (FAS),[2],inhibited
same,expression of stearoyl-CoA desaturase (SCD),[2],inhibited
same,SREBP-1c and nuclear (active-type) SREBP-1C expression increased by high-glucose/high-insulin,SREBP-1c [3],completely inhibited
same,expression of TNF-alpha mRNA,TNF-alpha mRNA,decreased
same,FAS expression increased by high-glucose/high-insulin,FAS,inhibited
same,expression of MCP-1 mRNA,MCP-1 mRNA,decreased

# From patent US20190008864A1, “PHARMACEUTICAL COMPOSITION CONTAINING GPR119 LIGAND AS EFFECTIVE INGREDIENT FOR PREVENTING OR TREATING NON-ALCOHOLIC STEATOHEPATITIS” (PHARMEDIX.CO., LTD., priority 2014, published 2019)
